Experimental data reported in PubChem BioAssay (NCI).
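Method: 48-hour compound exposure of cells in 96-well plates, five concentrations, linear interpolation of endpoints. TGI is the concentration that stops growth completely.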

Legend:
Assay in all cases: DTP human tumour cell line panel, 48 h
[1] = test system: NCI-H460 lung
[2] = test system: OVCAR-5 ovarian
[3] = test system: SK-OV-3 ovarian
[4] = test system: HL-60(TB) leukemia
[5] = test system: OVCAR-3 ovarian
[6] = test system: SNB-75 CNS
[7] = test system: MOLT-4 leukemia
[8] = test system: SW-620 colon
[9] = test system: RXF 393 renal
[10] = test system: LXFL 529 NSCLC
[11] = test system: SK-MEL-28 melanoma
[12] = test system: SF-268 CNS
[13] = test system: TK-10 renal
[14] = test system: 786-0 renal
[15] = test system: HCT-116 colon
[16] = test system: UO-31 renal
[17] = test system: NCI-H23 lung
[18] = test system: ACHN renal
[19] = test system: HOP-18 NSCLC
[20] = test system: M19-MEL melanoma
[21] = test system: XF 498 CNS
[22] = test system: CCRF-CEM leukemia
[23] = test system: EKVX NSCLC
[24] = test system: NCI-H226 lung
[25] = test system: SN12C renal
[26] = test system: UACC-257 melanoma
[27] = test system: RPMI-8226 leukemia
[28] = test system: SK-MEL-2 melanoma
[29] = test system: HOP-62 NSCLC
[30] = test system: HCT-15 colon
[31] = test system: SF-539 CNS
[32] = test system: OVCAR-8 ovarian
[33] = test system: MALME-3M melanoma
[34] = test system: A549 NSCLC
[35] = test system: LOX IMVI melanoma
[36] = test system: SF-295 CNS
[37] = test system: HOP-92 NSCLC
[38] = test system: SNB-19 CNS
[39] = test system: DMS 273 small cell lung
[40] = test system: KM20L2 colon
[41] = test system: RXF-631 renal
[42] = test system: U251 CNS
[43] = test system: COLO 205 colon
[44] = test system: HT29 colon
[45] = test system: DLD-1 colon
[46] = test system: UACC-62 melanoma
[47] = test system: HCC-2998 colon
[48] = test system: IGROV1 ovarian
[49] = test system: SR leukemia
[50] = test system: K-562 leukemia
[51] = test system: KM12 colon
[52] = test system: M14 melanoma
[53] = test system: SNB-78 CNS
[54] = test system: CAKI-1 renal
[55] = test system: OVCAR-4 ovarian
[56] = test system: SK-MEL-5 melanoma
[57] = test system: DMS 114 small cell lung
[58] = test system: A498 renal

Measured: TGI

Cc1cc2c(C)nn(Cc3ccccc3Cl)c2c(C#N)c1C
not listed: [50] | [51] | [52] | [53] | [54] | [55] | [56] | [57] | [58]
> 100 µM: all other assays above

COc1ccc(NC(=O)C2=CC(=O)c3ccc(O)cc3C2=O)c(OC)c1
not listed: [3] | [16] | [28] | [39]
> 100 µM: all other assays above
